Reference: US9266835B2, “Quinoline derivatives useful as CB-1 inverse agonists” (JANSSEN PHARMACEUTICA NV, priority 2014, dated 2016)

What was measured:
[1] = target: Human CB1R (Cannabinoid receptor 1) (Homo sapiens (Human), UniProt P21554); test: CB-1 in vitro cAMP assay (HTRF), inverse agonism; assay type: cell-based; settings: mean where tested more than once
[2] = target: Human CB2R (Cannabinoid receptor 2) (Homo sapiens (Human), UniProt P34972); test: CB-2 in vitro cAMP assay (HTRF), inverse agonism; assay type: cell-based; settings: mean where tested more than once
Human CB2R (Cannabinoid receptor 2), sequence (P34972 whole entry): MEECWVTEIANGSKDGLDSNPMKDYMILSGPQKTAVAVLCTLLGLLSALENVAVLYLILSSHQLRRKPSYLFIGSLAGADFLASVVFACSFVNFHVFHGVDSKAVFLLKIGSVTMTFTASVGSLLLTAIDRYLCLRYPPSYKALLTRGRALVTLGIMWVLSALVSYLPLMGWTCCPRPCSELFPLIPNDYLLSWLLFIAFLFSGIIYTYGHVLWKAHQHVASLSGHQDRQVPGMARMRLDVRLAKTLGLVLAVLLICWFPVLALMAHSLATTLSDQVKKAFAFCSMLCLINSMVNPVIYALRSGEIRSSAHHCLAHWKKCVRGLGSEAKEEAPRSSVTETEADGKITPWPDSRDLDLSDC

Human CB1R (Cannabinoid receptor 1), sequence (P21554 whole entry): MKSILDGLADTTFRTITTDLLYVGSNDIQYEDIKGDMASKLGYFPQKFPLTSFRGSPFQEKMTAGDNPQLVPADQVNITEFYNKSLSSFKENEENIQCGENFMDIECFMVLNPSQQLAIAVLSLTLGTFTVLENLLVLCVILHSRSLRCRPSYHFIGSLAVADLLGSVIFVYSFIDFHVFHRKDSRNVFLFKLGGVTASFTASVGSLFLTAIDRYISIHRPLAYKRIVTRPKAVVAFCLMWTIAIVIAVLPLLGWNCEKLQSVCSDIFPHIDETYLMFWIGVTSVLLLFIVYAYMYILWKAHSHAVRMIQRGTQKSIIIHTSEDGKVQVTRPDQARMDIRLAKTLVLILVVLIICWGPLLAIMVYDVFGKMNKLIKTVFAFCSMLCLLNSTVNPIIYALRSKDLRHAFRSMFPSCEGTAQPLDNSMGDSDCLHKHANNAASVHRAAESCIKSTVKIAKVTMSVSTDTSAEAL

Row | EC50 [1] | EC50 [2] | Compound
1 | > 10000 nM | 40 nM | O=S(=O)(Oc1cc(C2=CCN(S(=O)(=O)C(F)(F)F)CC2)c2cc(C(c3ccc(Cl)cc3)c3ccc(Cl)cc3)ccc2n1)C(F)(F)F [Compound 519, 6-(bis(4-chlorophenyl)methyl)-4-(1-((trifluoromethyl)sulfonyl)-1,2,3,6-tetrahydropyridin-4-yl)quinolin-2-yl trifluoromethanesulfonate]
2 | 219 nM | > 10000 nM | NC(=O)CCCOc1ccc(Nc2cc(=O)[nH]c3ccc(C(c4ccc(Cl)cc4)c4ccc(Cl)cc4)cc23)cc1 [Compound 123, 4-[4-({6-[Bis(4-chlorophenyl)methyl]-2-oxo-1,2-dihydroquinolin-4-yl}amino)phenoxy]butanamide]
3 | 2200 nM | > 10000 nM | COC(=O)CCCCCOc1cc(NC2CCN(S(=O)(=O)C(F)(F)F)CC2)c2cc(C(c3ccc(Cl)cc3)c3ccc(Cl)cc3)ccc2n1 [Compound 534, Methyl 6-({6-[bis(4-chlorophenyl)methyl]-4-({1-[(trifluoromethyl)sulfonyl]-piperidin-4-yl}amino)quinolin-2-yl}oxy)hexanoate]
4 | 3200 nM | > 10000 nM | O=c1cc(/C=C/c2cccc(F)c2)c2cc(C(c3ccccc3)c3ccc(Cl)cc3)ccc2[nH]1 (centres unmarked) [Compound 32, 6-[(4-Chlorophenyl)(phenyl)methyl]-4-[(E)-2-(3-fluorophenyl)ethenyl]quinolin-2(1H)-one]
5 | 51 nM | 8630 nM | NC(=O)CCCCOc1cc(C(c2ccc(Cl)cc2)c2ccc(Cl)cc2)cc2c(NC3CCN(S(=O)(=O)C(F)(F)F)CC3)ccnc12 [Compound 538, 5-((6-(bis(4-chlorophenyl)methyl)-4-((1-((trifluoromethyl)sulfonyl)piperidin-4-yl)amino)quinolin-8-yl)oxy)pentanamide]
6 | 36 nM | > 10000 nM | CC(Nc1cc(=O)[nH]c2ccc(C(c3ccc(Cl)cc3)c3ccc(Cl)cc3)cc12)c1cccc(C(F)(F)F)c1 (centres unmarked) [Compound 74, 6-[Bis(4-chlorophenyl)methyl]-4-({1-[3-(trifluoromethyl)phenyl]ethyl}amino)quinolin-2(1H)-one]
7 | 230 nM | > 3300 nM | O=c1cc(N[C@H]2CCN(S(=O)(=O)C(F)(F)F)C2)c2cc(C(c3ccc(Cl)cc3)c3nccs3)ccc2[nH]1 (stereo partly drawn) [Compound 48, 6-[(4-Chlorophenyl)(1,3-thiazol-2-yl)methyl]-4-({(3S)-1-[(trifluoromethyl)sulfonyl]-pyrrolidin-3-yl}amino)quinolin-2(1H)-one]
8 | 59 nM | > 10000 nM | O=c1cc(/C=C/c2ccc(C(F)(F)F)cc2)c2cc(C(c3ccc(Cl)cc3)c3cccs3)ccc2[nH]1 (centres unmarked) [Compound 19, 6-[(4-Chlorophenyl)(thiophen-2-yl)methyl]-4-{(E)-2-[4-(trifluoromethyl)phenyl]-ethenyl}quinolin-2(1H)-one]
9 | 310 nM | 460 nM | O=C(O)CCCNc1cc(C(c2ccc(Cl)cc2)c2ccc(Cl)cc2)cc2c(NC3CCN(S(=O)(=O)C(F)(F)F)CC3)cc(=O)[nH]c12 [Compound 108, 4-((6-(bis(4-chlorophenyl)methyl)-2-oxo-4-((1-((trifluoromethyl)sulfonyl)piperidin-4-yl)amino)-1,2-dihydroquinolin-8-yl)amino)butanoic acid]
10 | 10 nM | 840 nM | O=c1cc(NC2CCN(S(=O)(=O)C(F)(F)F)CC2)c2cc(C(c3ccc(Cl)cc3)c3ccc4c(c3)OCO4)ccc2[nH]1 (centres unmarked) [Compound 55, 6[1,3-Benzodioxo1-5-yl(4-chlorophenyl)methyl]-4-({1-[(trifluoromethyl)sulfonyl]-piperidin-4-yl}amino)quinolin-2(1H)-one]
11 | 251 nM | 3930 nM | O=C(O)c1ccc(S(=O)(=O)N2CCC(Nc3cc(=O)[nH]c4ccc(C(c5ccc(Cl)cc5)c5ccc(Cl)cc5)cc34)CC2)o1 [Compound 131, 5-{[4-({6-[Bis(4-chlorophenyl)methyl]-2-oxo-1,2-dihydroquinolin-4-yl}amino)piperidin-1-yl]sulfonyl}furan-2-carboxylic acid]
12 | 497 nM | > 10000 nM | O=c1cc(/C=C/c2cccc(F)c2)c2cc(C(c3ccc(Cl)cc3)c3nccs3)ccc2[nH]1 (centres unmarked) [Compound 38, (E)-6-((4-chlorophenyl)(thiazol-2-yl)methyl)-4-(3-fluorostyryl)quinolin-2(1H)-one]
13 | 228 nM | > 10000 nM | COCCn1c(=O)cc(NC2CCN(S(=O)(=O)C(F)(F)F)CC2)c2cc(C(c3ccc(Cl)cc3)c3ccc(Cl)cc3)ccc21 [Compound 110, 6-(bis(4-chlorophenyl)methyl)-1-(2-methoxyethyl)-4-((1-((trifluoromethyl)sulfonyl)piperidin-4-yl)amino)quinolin-2(1H)-one]
14 | > 10000 nM | > 10000 nM | OC(c1ccc(Cl)cc1)(c1ccc2nccc(/C=C/c3ccccc3)c2c1)c1cccs1 (centres unmarked) [Compound 506, (4-Chlorophenyl){4-[(E)-2-phenylethenyl]quinolin-6-yl}thiophen-2-ylmethanol]
15 | 375 nM | > 10000 nM | Clc1ccc(C(c2ccc3nccc(/C=C/c4ccccc4)c3c2)c2cccs2)cc1 (centres unmarked) [Compound 508, 6-[(4-Chlorophenyl)(thiophen-2-yl)methyl]-4-[(E)-2-phenylethenyl]quinoline]
16 | 31 nM | 9900 nM | CCOC(=O)CCC(=O)N1CCC(Nc2cc(=O)[nH]c3ccc(C(c4ccc(Cl)cc4)c4ccc(Cl)cc4)cc23)CC1 [Compound 97, ethyl 4-[4-([6-[bis(4-chlorophenyl)methyl]-2-hydroxyquinolin-4-yl]amino)piperidin-1-yl]-4-oxobutanoate]
17 | 15 nM | > 10000 nM | O=c1cc(NC2CCN(S(=O)(=O)C3CC3)CC2)c2cc(C(c3ccc(Cl)cc3)c3ccc(Cl)cc3)ccc2[nH]1 [Compound 67, 6-[Bis(4-chlorophenyl)methyl]-4-{[1-(cyclopropylsulfonyl)piperidin-4-yl]amino}quinolin-2(1H)-one]
18 | 227 nM | 750 nM | O=C(c1ccc(Nc2cc(=O)[nH]c3ccc(C(c4ccc(Cl)cc4)c4ccc(Cl)cc4)cc23)cc1F)N1CCCC1 [Compound 138]
19 | 55 nM | > 10000 nM | COCCOc1ccc(Nc2cc(=O)[nH]c3ccc(C(c4ccc(Cl)cc4)c4ccc(Cl)cc4)cc23)cc1 [Compound 94, 6-[Bis(4-chlorophenyl)methyl]-4-{[4-(2-methoxyethoxy)phenyl]-amino}quinolin-2(1H)-one]
20 | 100 nM | 204 nM | COc1cc(C(c2ccc(Cl)cc2)c2ccc(Cl)cc2)cc2c(NC3CCN(S(=O)(=O)C(F)(F)F)CC3)ccnc12 [Compound 536, 6-[bis(4-chlorophenyl)methyl]-8-methoxy-N-[1-(trifluoromethane)sulfonylpiperidin-4-yl]quinolin-4-amine]
21 | 83 nM | 90 nM | O=c1cc(/C=C/c2cccc(F)c2)c2cc(C(c3ccc(Cl)cc3)c3ccsc3)ccc2[nH]1 (centres unmarked) [Compound 16, 6-[(4-Chlorophenyl)(thiophen-3-yl)methyl]-4-[(E)-2-(3-fluorophenyl)ethenyl]quinolin-2(1H)-one]
22 | 58 nM | > 42000 nM | COCCCc1cc(C(c2ccc(Cl)cc2)c2ccc(Cl)cc2)cc2c(NC3CCN(S(=O)(=O)C(F)(F)F)CC3)cc(OC)nc12 [Compound 548, 6-[bis(4-chlorophenyl)methyl]-2-methoxy-8-(3-methoxypropyl)-N-[1-(trifluoromethane)sulfonylpiperidin-4-yl]quinolin-4-amine]
